Test results published in patent US20100280010A1, “CHEMICAL COMPOUNDS” (priority 2006, published 2010).

test system: HIV-1 (Ba-L or IIIB) infection of HOS cell line (expressing hCXCR4/hCCR5/hCD4/pHIV-LTR-luciferase); test: HOS HIV-1 Infectivity Assay; assay type: cell-based; conditions: Human immunodeficiency virus 1, HOS, virus strain not given, read-out: Activity Level
Procedure: Compounds were profiled against two HIV-1 viruses, the M-tropic (CCR5 utilizing) Ba-L strain and the T-tropic (CXCR4 utilizing) IIIB strain. Ba-L was propagated in either peripheral blood lymphocytes or SupT1/CCR5+/CXCR4+ cells. IIIB was propagated in peripheral blood lymphocytes. Compounds were tested for their ability to block infection of the HOS cell line (expressing hCXCR4/hCCR5/hCD4/pHIV-LTR-luciferase) by either HIV-1 Ba-L or HIV-1 IIIB. Compound cytotoxicity was also examined in the absence of virus addition.
HOS cells (expressing hCXCR4/hCCR5/hCD4/pHIV-LTR-luciferase) were harvested and diluted in Dulbeccos modified Eagles media supplemented with 2% FCS to a concentration of 120,000 cells/ml. The cells were plated into 96-well plates (50 μl per well) and the plates were placed in a tissue culture incubator ([…]; 5% CO2195% air) for a period of 24 h.
Subsequently, 50 μl of the desired drug solution (2 times the final concentration) was added to each well and the plates were returned to the tissue culture incubator (370° C.; 5% CO2/95% air) for 1 h. Following this incubation, 60 μl of diluted virus (4 times the final concentration) was added to 60 μl of 2× the final desired concentration of the compound and 100 μl of this compound/virus mix was added to each well (approximately 2 million RLU per well of virus). The plates were returned to the tissue culture incubator (370° C.; 5% CO2/95% air) and were incubated for a further 96 h.
Following this incubation the endpoint for the virally infected cultures was quantified following addition of Steady-Glo Luciferase assay system reagent (Promega, Madison, Wis.). Cell viability or non-infected cultures was measured using a CellTiter-Glo luminescent cell viability assay system (Promega, Madison, Wis.). All luminescent readouts are performed on a Topcount luminescence detector (Packard, Meridien, Conn.).

| Structure (SMILES) | IC50 |
| --- | --- |
| CCCN(Cc1nc2cccc(N3CCN(C(C)C)CC3)n2c1Cl)[C@H]1CCCc2cccnc21 [Example 85, (8S)—N-({3-Chloro-5-[4-(1-methylethyl)-1-piperazinyl]imidazo[1,2-a]pyridin-2-yl}methyl)-N-propyl-5,6,7,8-tetrahydro-8-quinolinamine] | < 100 nM |
| CCCN(Cc1nc2cccc(N3CC[C@@H](N(C)C)C3)n2c1Cl)[C@H]1CCCc2cccnc21 [Example 86, (8S)—N-({3-Chloro-5-[(3R)-3-(dimethylamino)-1-pyrrolidinyl]imidazo[1,2-a]pyridin-2-yl}methyl)-N-propyl-5,6,7,8-tetrahydro-8-quinolinamine] | < 100 nM |
| CN(C)C1CCN(c2cccc3nc(CN(C)[C@H]4CCCc5cccnc54)c(Cl)n23)CC1 [Example 75, (8S)—N-({3-Chloro-5-[4-(dimethylamino)-1-piperidinyl]imidazo[1,2-a]pyridin-2-yl}methyl)-N-methyl-5,6,7,8-tetrahydro-8-quinolinamine] | < 100 nM |
| CCCN(Cc1nc2cccc(N3CCN(CC)CC3)n2c1Cl)[C@H]1CCCc2cccnc21 [Example 83, (8S)—N-{[3-Chloro-5-(4-ethyl-1-piperazinyl)imidazo[1,2-a]pyridin-2-yl]methyl}-N-propyl-5,6,7,8-tetrahydro-8-quinolinamine] | < 100 nM |
| CCCN(Cc1nc2cccc(N3CCC(N(C)C)CC3)n2c1C#N)[C@H]1CCCc2cccnc21 [Example 66, 5-[4-(dimethylamino)-1-piperidinyl]-2-({propyl[(8S)-5,6,7,8-tetrahydro-8-quinolinyl]amino}methyl)imidazo[1,2-a]pyridine-3-carbonitrile] | < 100 nM |
| CN(C)[C@@H]1CCN(c2cccc3nc(CN(C)[C@H]4CCCc5cccnc54)c(C#N)n23)C1 [Example 38, 5-[(3R)-3-(Dimethylamino)-1-pyrrolidinyl]-2-({methyl[(8S)-5,6,7,8-tetrahydro-8-quinolinyl]amino}methyl)imidazo[1,2-a]pyridine-3-carbonitrile] | < 100 nM |
| CCN(Cc1nc2cccc(N3CC[C@@H](N(C)C)C3)n2c1C#N)[C@H]1CCCc2cccnc21 [Example 42, 5-[(3R)-3-(Dimethylamino)-1-pyrrolidinyl]-2-({ethyl[(8S)-5,6,7,8-tetrahydro-8-quinolinyl]amino}methyl)imidazo[1,2-a]pyridine-3-carbonitrile] | < 100 nM |
| CCCN(Cc1nc2cccc(N3CCC(N(C)C)CC3)n2c1C(N)=O)[C@H]1CCCc2cccnc21 [Example 67, 5-[4-(dimethylamino)-1-piperidinyl]-2-({propyl[(8S)-5,6,7,8-tetrahydro-8-quinolinyl]amino}methyl)imidazo[1,2-a]pyridine-3-carboxamide] | < 100 nM |
| CCCN(Cc1nc2cccc(N3CC[C@@H](N(C)C)C3)n2c1C#N)[C@H]1CCCc2cccnc21 [Example 46, 5-[(3R)-3-(Dimethylamino)-1-pyrrolidinyl]-2-({propyl[(8S)-5,6,7,8-tetrahydro-8-quinolinyl]amino}methyl)imidazo[1,2-a]pyridine-3-carbonitrile] | < 100 nM |
| CCCN(Cc1nc2cccc(N(C)CCN(C)C)n2c1Cl)[C@H]1CCCc2cccnc21 [Example 89, N-[3-Chloro-2-({propyl[(8S)-5,6,7,8-tetrahydro-8-Quinolinyl]amino}methyl)imidazo[1,2-a]pyridin-5-yl]-N,N′,N′-trimethyl-1,2-ethanediamine] | < 100 nM |
| CC(C)N(Cc1nc2cccc(N3CC[C@@H](N(C)C)C3)n2c1C(N)=O)[C@H]1CCCc2cccnc21 [Example 51, 5-[(3R)-3-(Dimethylamino)-1-pyrrolidinyl]-2-({(1-methylethyl)[(8S)-5,6,7,8-tetrahydro-8-quinolinyl]amino}methyl)imidazo[1,2-a]pyridine-3-carboxamide] | < 100 nM |
| CCCN(Cc1nc2cccc(N3CCCN(C)CC3)n2c1Cl)[C@H]1CCCc2cccnc21 [Example 84, (8S)—N-{[3-Chloro-5-(4-methylhexahydro-1H-1,4-diazepin-1-yl)imidazo[1,2-a]pyridin-2-yl]methyl}-N-propyl-5,6,7,8-tetrahydro-8-quinolinamine] | < 100 nM |
| CN(C)[C@@H]1CCN(c2cccc3nc(CN(C)[C@H]4CCCc5cccnc54)c(Cl)n23)C1 [Example 74, (8S)—N-({3-Chloro-5-[(3R)-3-(dimethylamino)-1-pyrrolidinyl]imidazo[1,2-a]pyridin-2-yl}methyl)-N-methyl-5,6,7,8-tetrahydro-8-quinolinamine] | < 100 nM |
| CC(C)N1CCN(c2cccc3nc(CN(C)[C@H]4CCCc5cccnc54)c(Cl)n23)CC1 [Example 80, (8S)—N-({3-Chloro-5-[4-(1-methylethyl)-1-piperazinyl]imidazo[1,2-a]pyridin-2-yl}methyl)-N-methyl-5,6,7,8-tetrahydro-8-quinolinamine] | < 100 nM |
| CC(C)N(Cc1nc2cccc(N3CCN(C)CC3)n2c1C#N)[C@H]1CCCc2cccnc21 [Example 29, 2-({(1-Methylethyl)[(8S)-5,6,7,8-tetrahydro-8-quinolinyl]amino}methyl)-5-(4-methyl-1-piperazinyl)imidazo[1,2-a]pyridine-3-carbonitrile] | < 100 nM |
| CCCN(Cc1cn2c(N3CCN(C)CC3)ccc(F)c2n1)[C@H]1CCCc2cccnc21 [Example 90, (8S)—N-{[8-Fluoro-5-(4-methyl-1-piperazinyl)imidazo[1,2-a]pyridin-2-yl]methyl}-N-propyl-5,6,7,8-tetrahydro-8-quinolinamine] | < 100 nM |
| CN(C)C1CCN(c2cccc3nc(CN(C)[C@H]4CCCc5cccnc54)c(C(N)=O)n23)CC1 [Example 59] | < 100 nM |
| CC(C)N(Cc1nc2cccc(N3CCC(N(C)C)CC3)n2c1C#N)[C@H]1CCCc2cccnc21 [Example 70, 5-[4-(dimethylamino)-1-piperidinyl]-2-({(1-methylethyl)[(8S)-5,6,7,8-tetrahydro-8-quinolinyl]amino}methyl)imidazo[1,2-a]pyridine-3-carbonitrile] | < 100 nM |
| CN1CCN(c2cccc3nc(CN(CC4CC4)[C@H]4CCCc5cccnc54)c(C#N)n23)CC1 [Example 33, 2-({(Cyclopropylmethyl)[(8S)-5,6,7,8-tetrahydro-8-quinolinyl]amino}methyl)-5-(4-methyl-1-piperazinyl)imidazo[1,2-a]pyridine-3-carbonitrile] | < 100 nM |
| CN(C)[C@@H]1CCN(c2cccc3nc(CN(C)[C@H]4CCCc5cccnc54)c(C(N)=O)n23)C1 [Example 39, 5-[(3R)-3-(Dimethylamino)-1-pyrrolidinyl]-2-({methyl[(8S)-5,6,7,8-tetrahydro-8-quinolinyl]amino}methyl)imidazo[1,2-a]pyridine-3-carboxamide] | < 100 nM |
| C[C@H]1CN(c2cccc3nc(CN(C)[C@H]4CCCc5cccnc54)c(Cl)n23)CCN1 [Example 78, (8S)—N-({3-Chloro-5-[(3S)-3-methyl-1-piperazinyl]imidazo[1,2-a]pyridin-2-yl}methyl)-N-methyl-5,6,7,8-tetrahydro-8-quinolinamine] | < 100 nM |
